# Test results published in PubChem BioAssay AID254 (DTP/NCI, 2004).
# Several values for one entry are separate records, joined by “and”; a condition that tells them apart may be missing. Identical values can stand only once. Inconclusive results and toxic doses are left out.
# Tested on: L1210 leukemia iv in BDF1 mice, survival T/C
# Test: NCI In Vivo Anticancer Drug Screen. Data for tumor model L1210 Leukemia (intravenous) in B6D2F1 (BDF1) mice
# Conditions: higher = longer survival
# Procedure: The antitumor activity of compounds was measured in mice bearing transplantable tumors. Survival or tumor size were measured and the results are expressed as the measurement made in the treated group (T) divided by the measurement made in the vehicle treated control group (C). The tumor model used in this assay is L1210 Leukemia (intravenous) in B6D2F1 (BDF1) mice
structure (smiles),measurement,setting,value
O=NN(CCCl)C(=O)NC1CCCCC1,T/C,"endpoint: mean survival time, dose: 5.1 mg/kg/injection, schedule: Q01DX001 (ip), vehicle: carboxymethylcellulose (CMC)",102 % of control
same,T/C,"endpoint: mean survival time, dose: 10.0 mg/kg/injection, schedule: Q04DX004 (ip), vehicle: carboxymethylcellulose (CMC)",124 % of control
same,T/C,"endpoint: mean survival time, dose: 15.0 mg/kg/injection, schedule: Q01DX001 (ip), vehicle: Klucel (hydroxypropylcellulose) (HPC)",170 % of control
same,T/C,"endpoint: mean survival time, dose: 16.0 mg/kg/injection, schedule: Q04DX004 (ip), vehicle: carboxymethylcellulose (CMC)",160 % of control
same,T/C,"endpoint: mean survival time, dose: 16.6 mg/kg/injection, schedule: Q01DX001 (ip), vehicle: carboxymethylcellulose (CMC)",163 % of control and 174 % of control
same,T/C,"endpoint: mean survival time, dose: 17.0 mg/kg/injection, schedule: Q01DX001 (ip), vehicle: carboxymethylcellulose (CMC)",176 % of control
same,T/C,"endpoint: mean survival time, dose: 18.0 mg/kg/injection, schedule: Q01DX001 (ip), vehicle: Klucel (hydroxypropylcellulose) (HPC)",177 % of control
same,T/C,"endpoint: mean survival time, dose: 21.0 mg/kg/injection, schedule: Q01DX001 (ip), vehicle: carboxymethylcellulose (CMC)",218 % of control and 241 % of control
same,T/C,"endpoint: mean survival time, dose: 22.0 mg/kg/injection, schedule: Q01DX001 (ip), vehicle: Klucel (hydroxypropylcellulose) (HPC)",227 % of control
same,T/C,"endpoint: mean survival time, dose: 22.0 mg/kg/injection, schedule: Q01DX001 (ip), vehicle: carboxymethylcellulose (CMC)",192 % of control and 225 % of control
same,T/C,"endpoint: mean survival time, dose: 22.0 mg/kg/injection, schedule: Q04DX004 (ip), vehicle: carboxymethylcellulose (CMC)",360 % of control
same,T/C,"endpoint: mean survival time, dose: 27.0 mg/kg/injection, schedule: Q01DX001 (ip), vehicle: Klucel (hydroxypropylcellulose) (HPC)",161 % of control
same,T/C,"endpoint: mean survival time, dose: 30.0 mg/kg/injection, schedule: Q01DX001 (ip), vehicle: carboxymethylcellulose (CMC)",346 % of control
same,T/C,"endpoint: mean survival time, dose: 33.0 mg/kg/injection, schedule: Q04DX004 (ip), vehicle: carboxymethylcellulose (CMC)",709 % of control
same,T/C,"endpoint: mean survival time, dose: 33.5 mg/kg/injection, schedule: Q01DX001 (ip), vehicle: Klucel (hydroxypropylcellulose) (HPC)",574 % of control
same,T/C,"endpoint: mean survival time, dose: 37.5 mg/kg/injection, schedule: Q01DX001 (ip), vehicle: carboxymethylcellulose (CMC)",534 % of control and 560 % of control and 606 % of control
same,T/C,"endpoint: mean survival time, dose: 40.0 mg/kg/injection, schedule: Q01DX001 (ip), vehicle: Klucel (hydroxypropylcellulose) (HPC)",222 % of control
same,T/C,"endpoint: mean survival time, dose: 40.0 mg/kg/injection, schedule: Q01DX001 (ip), vehicle: carboxymethylcellulose (CMC)",368 % of control
same,T/C,"endpoint: mean survival time, dose: 42.0 mg/kg/injection, schedule: Q01DX001 (ip), vehicle: Klucel (hydroxypropylcellulose) (HPC)",438 % of control
same,T/C,"endpoint: mean survival time, dose: 43.0 mg/kg/injection, schedule: Q01DX001 (ip), vehicle: carboxymethylcellulose (CMC)",633 % of control and 707 % of control
same,T/C,"endpoint: mean survival time, dose: 50.0 mg/kg/injection, schedule: Q01DX001 (ip), vehicle: Klucel (hydroxypropylcellulose) (HPC)",407 % of control
same,T/C,"endpoint: mean survival time, dose: 56.0 mg/kg/injection, schedule: Q01DX001 (ip), vehicle: Klucel (hydroxypropylcellulose) (HPC)",464 % of control
same,T/C,"endpoint: mean survival time, dose: 60.0 mg/kg/injection, schedule: Q01DX001 (ip), vehicle: Klucel (hydroxypropylcellulose) (HPC)",336 % of control
same,T/C,"endpoint: mean survival time, dose: 62.5 mg/kg/injection, schedule: Q01DX001 (ip), vehicle: carboxymethylcellulose (CMC)",652 % of control and 662 % of control and 775 % of control
same,T/C,"endpoint: mean survival time, dose: 70.0 mg/kg/injection, schedule: Q01DX001 (ip), vehicle: Klucel (hydroxypropylcellulose) (HPC)",519 % of control
same,T/C,"endpoint: mean survival time, dose: 75.0 mg/kg/injection, schedule: Q01DX001 (ip), vehicle: carboxymethylcellulose (CMC)",826 % of control
same,T/C,"endpoint: mean survival time, dose: 86.0 mg/kg/injection, schedule: Q01DX001 (ip), vehicle: carboxymethylcellulose (CMC)",242 % of control and 297 % of control
same,T/C,"endpoint: mean survival time, dose: 90.0 mg/kg/injection, schedule: Q01DX001 (ip), vehicle: Klucel (hydroxypropylcellulose) (HPC)",522 % of control
Nc1nc(=S)c2[nH]cnc2[nH]1,T/C,"endpoint: mean survival time, dose: 0.4 mg/kg/injection, schedule: Q01DX008 (ip), vehicle: alkali diluted with saline",107 % of control
same,T/C,"endpoint: mean survival time, dose: 0.4 mg/kg/injection, schedule: Q06HX008 (ip), vehicle: alkali diluted with saline",117 % of control
same,T/C,"endpoint: mean survival time, dose: 0.4 mg/kg/injection, schedule: Q12HX008 (ip), vehicle: alkali diluted with saline",114 % of control
same,T/C,"endpoint: mean survival time, dose: 0.6 mg/kg/injection, schedule: Q01DX008 (ip), vehicle: alkali diluted with saline",114 % of control
same,T/C,"endpoint: mean survival time, dose: 0.6 mg/kg/injection, schedule: Q01HX008 (ip), vehicle: alkali diluted with saline",152 % of control
same,T/C,"endpoint: mean survival time, dose: 4.8 mg/kg/injection, schedule: Q01DX001 (ip), vehicle: alkali diluted with saline",156 % of control
same,T/C,"endpoint: mean survival time, dose: 115.0 mg/kg/injection, schedule: Q01DX001 (ip), vehicle: alkali diluted with saline",195 % of control
same,T/C,"endpoint: median survival time, dose: 20.0 mg/kg/injection, schedule: Q04DX002 (ip), vehicle: alkali diluted with saline",206 % of control and 227 % of control
same,T/C,"endpoint: median survival time, dose: 25.0 mg/kg/injection, schedule: Q04DX002 (ip), vehicle: alkali diluted with saline",198 % of control and 231 % of control
CCCCCCCCCCCCCCCC(=O)OCC1OC(n2ccc(N)nc2=O)C(O)C1O (configuration not stated),T/C,"endpoint: mean survival time, dose: 5.0 mg/kg/injection, schedule: Q01DX005 (ip), vehicle: other",118 % of control and 122 % of control
same,T/C,"endpoint: mean survival time, dose: 10.0 mg/kg/injection, schedule: Q01DX005 (ip), vehicle: other",172 % of control
same,T/C,"endpoint: mean survival time, dose: 15.0 mg/kg/injection, schedule: Q01DX005 (ip), vehicle: other",177 % of control
same,T/C,"endpoint: mean survival time, dose: 18.0 mg/kg/injection, schedule: Q01DX004 (ip), vehicle: other",165 % of control and 183 % of control
same,T/C,"endpoint: mean survival time, dose: 20.0 mg/kg/injection, schedule: Q01DX005 (ip), vehicle: other",175 % of control and 176 % of control and 200 % of control
same,T/C,"endpoint: mean survival time, dose: 25.0 mg/kg/injection, schedule: Q01DX005 (ip), vehicle: other",171 % of control and 211 % of control and 220 % of control
same,T/C,"endpoint: mean survival time, dose: 27.0 mg/kg/injection, schedule: Q01DX004 (ip), vehicle: other",182 % of control and 234 % of control
same,T/C,"endpoint: mean survival time, dose: 27.0 mg/kg/injection, schedule: Q02DX004 (ip), vehicle: other",178 % of control and 193 % of control
same,T/C,"endpoint: mean survival time, dose: 30.0 mg/kg/injection, schedule: Q01DX005 (ip), vehicle: other",217 % of control and 249 % of control and 252 % of control
same,T/C,"endpoint: mean survival time, dose: 35.0 mg/kg/injection, schedule: Q01DX005 (ip), vehicle: other",201 % of control and 267 % of control and 298 % of control
same,T/C,"endpoint: mean survival time, dose: 40.0 mg/kg/injection, schedule: Q01DX004 (ip), vehicle: other",263 % of control and 291 % of control
same,T/C,"endpoint: mean survival time, dose: 40.0 mg/kg/injection, schedule: Q02DX004 (ip), vehicle: other",213 % of control and 226 % of control
same,T/C,"endpoint: mean survival time, dose: 40.0 mg/kg/injection, schedule: Q03DX004 (ip), vehicle: other",216 % of control and 246 % of control
same,T/C,"endpoint: mean survival time, dose: 60.0 mg/kg/injection, schedule: Q01DX004 (ip), vehicle: other",249 % of control and 323 % of control
same,T/C,"endpoint: mean survival time, dose: 60.0 mg/kg/injection, schedule: Q02DX004 (ip), vehicle: other",248 % of control and 280 % of control
same,T/C,"endpoint: mean survival time, dose: 60.0 mg/kg/injection, schedule: Q03DX004 (ip), vehicle: other",242 % of control and 305 % of control
same,T/C,"endpoint: mean survival time, dose: 60.0 mg/kg/injection, schedule: Q04DX004 (ip), vehicle: other",202 % of control and 260 % of control
same,T/C,"endpoint: mean survival time, dose: 90.0 mg/kg/injection, schedule: Q02DX004 (ip), vehicle: other",277 % of control and 309 % of control
same,T/C,"endpoint: mean survival time, dose: 90.0 mg/kg/injection, schedule: Q03DX004 (ip), vehicle: other",291 % of control and 328 % of control
same,T/C,"endpoint: mean survival time, dose: 90.0 mg/kg/injection, schedule: Q04DX004 (ip), vehicle: other",340 % of control and 303 % of control
same,T/C,"endpoint: mean survival time, dose: 100.0 mg/kg/injection, schedule: Q01DX001 (ip), vehicle: saline with Tween-80",200 % of control
same,T/C,"endpoint: mean survival time, dose: 135.0 mg/kg/injection, schedule: Q03DX004 (ip), vehicle: other",175 % of control and 249 % of control
same,T/C,"endpoint: mean survival time, dose: 135.0 mg/kg/injection, schedule: Q04DX004 (ip), vehicle: other",267 % of control and 327 % of control
same,T/C,"endpoint: mean survival time, dose: 150.0 mg/kg/injection, schedule: Q01DX001 (ip), vehicle: saline with Tween-80",229 % of control
same,T/C,"endpoint: mean survival time, dose: 200.0 mg/kg/injection, schedule: Q04DX004 (ip), vehicle: other",203 % of control and 244 % of control
same,T/C,"endpoint: median survival time, dose: 75.0 mg/kg/injection, schedule: Q04DX002 (ip), vehicle: saline with Tween-80",318 % of control and 327 % of control
same,T/C,"endpoint: median survival time, dose: 100.0 mg/kg/injection, schedule: Q04DX002 (ip), vehicle: saline with Tween-80",314 % of control and 315 % of control
CN(C)/N=N/c1nc[nH]c1C(N)=O,T/C,"endpoint: mean survival time, dose: 42.0 mg/kg/injection, schedule: Q01DX001 (ip), vehicle: carboxymethylcellulose (CMC)",85 % of control and 86 % of control
same,T/C,"endpoint: mean survival time, dose: 83.0 mg/kg/injection, schedule: Q01DX001 (ip), vehicle: carboxymethylcellulose (CMC)",97 % of control and 98 % of control
same,T/C,"endpoint: mean survival time, dose: 170.0 mg/kg/injection, schedule: Q01DX001 (ip), vehicle: carboxymethylcellulose (CMC)",114 % of control and 115 % of control
same,T/C,"endpoint: mean survival time, dose: 180.0 mg/kg/injection, schedule: Q01DX001 (ip), vehicle: carboxymethylcellulose (CMC)",113 % of control
same,T/C,"endpoint: mean survival time, dose: 600.0 mg/kg/injection, schedule: Q01DX001 (ip), vehicle: carboxymethylcellulose (CMC)",161 % of control
same,T/C,"endpoint: mean survival time, dose: 900.0 mg/kg/injection, schedule: Q01DX001 (ip), vehicle: carboxymethylcellulose (CMC)",193 % of control
same,T/C,"endpoint: mean survival time, dose: 1012.0 mg/kg/injection, schedule: Q01DX001 (ip), vehicle: carboxymethylcellulose (CMC)",183 % of control and 184 % of control
same,T/C,"endpoint: mean survival time, dose: 1350.0 mg/kg/injection, schedule: Q01DX001 (ip), vehicle: carboxymethylcellulose (CMC)",113 % of control
